Measured values: patent publication US10344019B2 (priority 2010, dated 2019)
Where two headings read alike, the source gives them in different places.

Assays:
Format in all cases: cell-based
[1] = tested on: HCV 2a Rluc cells (NS5A chimeric genotype 2a JFH-1 replicon with genotype 2a J6 strain NS5A gene, M31 present); experiment: HCV replicon reporter assay, genotype 2a J6 (M31 present); conditions: Hepatitis C virus, read-out: 2a J6
Method: Evaluation of cell-based anti-HCV activity: Antiviral potency (EC50) was determined using a Renilla luciferase (RLuc)-based HCV replicon reporter assay. To perform the assay for genotype 1 and 2a JFH-1, HCV 1b RLuc cells (harboring a dicistronic genotype 1b Con1 replicon that encodes a RLuc reporter), or HCV 1a RLuc cells (harboring a dicistronic genotype 1a H77 replicon that encodes a RLuc reporter), or HCV 2a JFH-1 Rluc cells (harboring a dicistronic genotype 2a JFH-1 replicon that encodes a RLuc reporter) were dispensed into 384-well plates. To perform the assay for genotype 2a (with M31 present) or 2b, HCV 2a Rluc or 2b Rluc cells (both with M31 present) harboring a dicistronic NS5A chimeric genotype 2a JFH-1 replicon that encodes a RLuc reporter and either genotype 2a J6 strain NS5A gene or genotype 2b MD2b-1 NS5A gene (based on Los Alamos HCV database isolates, both with M31 present) respectively, were dispensed into 384-well plates. To perform the assay for genotype 3 and 4, HCV 3a RLuc or 4a Rluc cells harboring a dicistronic NS5A chimeric genotype 1b Con1 replicon that encodes a RLuc reporter and either a consensus genotype 3a NS5A gene or genotype 4a NS5A gene (based on Los Alamos HCV database isolates) respectively, were dispensed into 384-well plates. Compounds were re-suspended in DMSO at a concentration of 10 mM and serially diluted in DMSO either manually or using an automated pipeting instrument. Serially diluted compounds were mixed with cell culture media and added to the seeded cells. […] 72 hours later, cells were lysed and Renilla luciferase activity quantified as recommended by the manufacturer (Promega-Madison, Wis.). Non-linear regression was performed to calculate EC50 values.

[2] = tested on: HCV 4a Rluc cells (NS5A chimeric genotype 1b Con1 replicon with genotype 4a NS5A gene); experiment: microbe, parasite or virus in culture; conditions: Hepatitis C virus, read-out: 4a
Method in brief: (§1)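 Replicon cells stably carrying the listed RLuc-encoding dicistronic replicons were seeded and treated with DMSO serial dilutions of compound (10 mM stocks) diluted into culture medium. After 72 h, cells were lysed and Renilla luciferase activity measured. EC50 was derived by non-linear regression.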

[3] = tested on: HCV 3a RLuc cells (NS5A chimeric genotype 1b Con1 replicon with consensus genotype 3a NS5A gene); experiment: microbe, parasite or virus in culture; conditions: Hepatitis C virus
Method in brief: as §1

[4] = tested on: HCV 2a JFH-1 Rluc cells (dicistronic genotype 2a JFH-1 replicon, RLuc reporter); experiment: microbe, parasite or virus in culture; conditions: Hepatitis C virus, genotype 2a JFH-1 replicon, read-out: 2a JFH
Method in brief: as §1

[5] = tested on: HCV 1a RLuc cells (dicistronic genotype 1a H77 replicon, RLuc reporter); experiment: microbe, parasite or virus in culture; conditions: Hepatitis C virus, read-out: 1a
Method in brief: as §1

[6] = tested on: HCV 1b RLuc cells (dicistronic genotype 1b Con1 replicon, RLuc reporter); experiment: microbe, parasite or virus in culture; conditions: Hepatitis C virus, read-out: 1b (nM)
Method in brief: as §1

[7] = read-out: 3a, Table 2, genotype 3a NS5A chimeric replicon
[8] = 72 h, Table 2, genotype 1a H77 replicon, 72 hours
[9] = read-out: 3a, genotype 3a replicon

Row | SMILES | EC50 [1] [nM] | EC50 [2] [nM] | EC50 ([3]; read-out: 3a, Table 1, genotype 3a NS5A chimeric replicon) [nM] | EC50 ([4]; 72 h, Table 1, 72 hours) [nM] | EC50 ([5]; 72 h, Table 1, genotype 1a H77 replicon, 72 hours) [nM] | EC50 ([6]; 72 h) [nM] | EC50 [3, 7] [nM] | EC50 ([4]; 72 h, Table 2, 72 hours) [nM] | EC50 [5, 8] [nM] | EC50 [3, 9] [nM] | EC50 [4] [nM] | EC50 ([5]; genotype 1a replicon) [nM] | EC50 [6] [nM]
1 | COC(=O)N[C@H](C(=O)N1CCC[C@H]1c1ncc(-c2cc3c4c(c2)OCc2cc(-c5cnc([C@@H]6CCCN6C(=O)[C@@H](NC(=O)OC)C6CCOCC6)[nH]5)cc(c2-4)OC3)[nH]1)C(C)C [Example 25b] | 1 to 44 | 0.001 to 0.99 | 0.001 to 0.99 | 0.001 to 0.999 | 0.001 to 0.999 | 0.176 |  |  |  |  |  |  | 
2 | COC(=O)N[C@H](C(=O)N1CCC[C@H]1c1nc2ccc3cc(-c4ccc(-c5cnc([C@@H]6[C@H]7CC[C@H](C7)N6C(=O)[C@@H](NC(=O)OC)C(C)C)[nH]5)cc4)ccc3c2[nH]1)C(C)C [Example 53] | > 44 | 0.001 to 0.99 |  |  |  | 0.01 | 0.001 to 0.99 | 0.001 to 0.999 | 0.001 to 0.999 |  |  |  | 
3 | COC(=O)N[C@H](C(=O)N1CCC[C@H]1c1nc2ccc3cc(-c4ccc(-c5cnc([C@@H]6[C@H]7CC[C@H](C7)N6C(=O)[C@H](NC(=O)OC)c6ccccc6)[nH]5)cc4)ccc3c2[nH]1)C(C)C [Example 54] | > 44 | 0.001 to 0.99 |  |  |  | 0.014 | 0.001 to 0.99 | 0.001 to 0.999 | 0.001 to 0.999 |  |  |  | 
4 | COC(=O)N[C@H](C(=O)N1CCC[C@H]1c1nc2ccc3cc(-c4ccc(-c5cnc([C@@H]6[C@H]7CC[C@H](C7)N6C(=O)[C@@H](NC(=O)OC)[C@@H](C)OC)[nH]5)cc4)ccc3c2[nH]1)C(C)C [Example 55] | > 44 | 0.001 to 0.99 |  |  |  | 0.015 | 0.001 to 0.99 | 0.001 to 0.999 | 0.001 to 0.999 |  |  |  | 
5 | COC(=O)NC(C(=O)N1CCC[C@H]1c1ncc(-c2ccc(-c3ccc4c(ccc5nc([C@@H]6[C@H]7CC[C@H](C7)N6C(=O)[C@@H](NC(=O)OC)C(C)C)[nH]c54)c3)cc2)[nH]1)C(C)C (stereo partly drawn) [Example 65] | > 44 | 0.001 to 0.99 |  |  |  | 0.015 | 0.001 to 0.99 | 0.001 to 0.999 | 0.001 to 0.999 |  |  |  | 
6 | COC(=O)NC(C(=O)N1CCC[C@H]1c1ncc(-c2ccc(-c3ccc4c(ccc5nc([C@@H]6[C@H]7CC[C@H](C7)N6C(=O)[C@@H](NC(=O)OC)[C@@H](C)OC)[nH]c54)c3)cc2)[nH]1)C(C)C (stereo partly drawn) [Example 66] | > 44 | 0.001 to 0.99 |  |  |  | 0.022 | 0.001 to 0.99 | 0.001 to 0.999 | 0.001 to 0.999 |  |  |  | 
7 | COC(=O)NC(C(=O)N1CCC[C@H]1c1ncc(-c2ccc(-c3ccc4c(ccc5nc([C@@H]6[C@H]7CC[C@H](C7)N6C(=O)[C@@H](NC(=O)OC)C(C)C)[nH]c54)c3)cc2)[nH]1)[C@@H](C)OC (stereo partly drawn) [Example 68] | 1 to 44 | 0.001 to 0.99 |  |  |  | 0.025 | 0.001 to 0.99 | 0.001 to 0.999 | 0.001 to 0.999 |  |  |  | 
8 | COC(=O)N[C@H](C(=O)N1CCC[C@H]1c1nc2ccc3cc(-c4ccc(-c5cnc([C@@H]6CC7(CN6C(=O)[C@H](C(C)C)C(C)C(=O)OC)OCCO7)[nH]5)cc4)ccc3c2[nH]1)[C@@H](C)OC (stereo partly drawn) [Example 80] | > 44 | 0.001 to 0.99 |  |  |  | 0.072 | 0.001 to 0.99 | 0.001 to 0.999 | 0.001 to 0.999 |  |  |  | 
9 | COC(=O)N[C@H](C(=O)N1CCC[C@H]1c1nc2ccc3cc(-c4ccc5c(c4)CCc4nc([C@@H]6CC7(CN6C(=O)[C@@H](NC(=O)OC)[C@@H](C)OC)OCCO7)[nH]c4-5)ccc3c2[nH]1)C(C)C [Example 83] | > 44 | 0.001 to 0.99 |  |  |  | 0.094 | 1 to 4.99 | 0.001 to 0.999 | 0.001 to 0.999 |  |  |  | 
10 | COC(=O)N[C@H](C(=O)N1[C@@H]2CC[C@@H](C2)[C@H]1c1ncc(-c2ccc(-c3ccc4c(ccc5nc([C@@H]6C[C@H]7C[C@H]7N6C(=O)[C@@H](NC(=O)OC)C(C)C)[nH]c54)c3)cc2)[nH]1)C(C)C [Example 98] | > 44 | 0.001 to 0.99 |  |  |  | 0.01 | 1 to 4.99 | 0.001 to 0.999 | 0.001 to 0.999 |  |  |  | 
11 | COC(=O)N[C@H](C(=O)N1CCC[C@H]1c1nc2ccc3cc(-c4ccc(-c5cnc([C@@H]6[C@H]7CC[C@H](C7)N6C(=O)[C@H](NC(=O)OC)c6ccccc6)[nH]5)c(F)c4)ccc3c2[nH]1)C(C)C [Example 306] | > 44 | 0.001 to 0.99 |  |  |  |  |  |  |  | 0.001 to 0.99 | 0.001 to 0.999 | 0.001 to 0.999 | 0.011
12 | COC(=O)N[C@H](C(=O)N1[C@@H]2CC[C@@H](C2)[C@H]1c1ncc(-c2ccc(-c3ccc4c(ccc5nc([C@@H]6CCCN6C(=O)[C@H](NC(=O)OC)c6ccccc6)[nH]c54)c3)cc2)[nH]1)C(C)C [Example 315] | 1 to 44 | 0.001 to 0.99 |  |  |  |  |  |  |  | 0.001 to 0.99 | 0.001 to 0.999 | 0.001 to 0.999 | 0.023
13 | COC(=O)N[C@H](C(=O)N1CCC[C@H]1c1ncc(-c2cc3c4c(c2)COc2cc(-c5cnc([C@@H]6CCCN6C(=O)[C@@H](NC(=O)OC)C(C)C)[nH]5)cc(c2-4)OC3)[nH]1)C(C)C [Example 319] | 0.001 to 0.999 | 0.001 to 0.99 |  |  |  |  |  |  |  | 0.001 to 0.99 | 0.001 to 0.999 | 0.001 to 0.999 | 0.021
14 | COC(=O)N[C@H](C(=O)N1[C@@H]2CC[C@@H](C2)[C@H]1c1nc2ccc3cc(-c4ccc5c(ccc6nc([C@@H]7CCCN7C(=O)[C@H](NC(=O)OC)c7ccccc7)[nH]c65)c4)ccc3c2[nH]1)C1CCOCC1 [Example 345] | 0.001 to 0.999 | 0.001 to 0.99 |  |  |  |  |  |  |  | 0.001 to 0.99 | 0.001 to 0.999 | 0.001 to 0.999 | 0.066
15 | COC(=O)N[C@H](C(=O)N1CCC[C@H]1c1ncc(-c2cc3c4c(c2)COc2cc(-c5cnc([C@@H]6CCCN6C(=O)[C@@H](NC(=O)OC)C(C)C)[nH]5)cc(c2-4)CC3)[nH]1)C(C)C [Example 370] | > 44 | 0.001 to 0.99 |  |  |  |  |  |  |  | 0.001 to 0.99 | 0.001 to 0.999 | 0.001 to 0.999 | 0.028
16 | COC(=O)N[C@H](C(=O)N1[C@@H]2CC[C@@H](C2)[C@H]1c1nc(Cl)c(-c2ccc(-c3ccc4c(ccc5nc([C@@H]6C[C@H]7C[C@H]7N6C(=O)[C@@H](NC(=O)OC)C(C)C)[nH]c54)c3)cc2)[nH]1)C(C)C [Example 381] | > 44 | 0.001 to 0.99 |  |  |  |  |  |  |  | 0.001 to 0.99 | 0.001 to 0.999 | 0.001 to 0.999 | 0.008
